Key:
[1] = molecular target: T1, Recombinant human LOXL3 (lysyl oxidase like 3) (Homo sapiens, UniProt P58215); assay: LOXL3 inhibition assay, fluorometric (cadaverine / HRP / Amplex Red); assay type: biochemical; settings: recombinant human LOXL3 150 nM; 30 min preincubation at 37° C.; 1 mM cadaverine; read-out: Activity Range LOXL3
T1 construct: purchased R&D systems
T1 sequence (P58215 26-753): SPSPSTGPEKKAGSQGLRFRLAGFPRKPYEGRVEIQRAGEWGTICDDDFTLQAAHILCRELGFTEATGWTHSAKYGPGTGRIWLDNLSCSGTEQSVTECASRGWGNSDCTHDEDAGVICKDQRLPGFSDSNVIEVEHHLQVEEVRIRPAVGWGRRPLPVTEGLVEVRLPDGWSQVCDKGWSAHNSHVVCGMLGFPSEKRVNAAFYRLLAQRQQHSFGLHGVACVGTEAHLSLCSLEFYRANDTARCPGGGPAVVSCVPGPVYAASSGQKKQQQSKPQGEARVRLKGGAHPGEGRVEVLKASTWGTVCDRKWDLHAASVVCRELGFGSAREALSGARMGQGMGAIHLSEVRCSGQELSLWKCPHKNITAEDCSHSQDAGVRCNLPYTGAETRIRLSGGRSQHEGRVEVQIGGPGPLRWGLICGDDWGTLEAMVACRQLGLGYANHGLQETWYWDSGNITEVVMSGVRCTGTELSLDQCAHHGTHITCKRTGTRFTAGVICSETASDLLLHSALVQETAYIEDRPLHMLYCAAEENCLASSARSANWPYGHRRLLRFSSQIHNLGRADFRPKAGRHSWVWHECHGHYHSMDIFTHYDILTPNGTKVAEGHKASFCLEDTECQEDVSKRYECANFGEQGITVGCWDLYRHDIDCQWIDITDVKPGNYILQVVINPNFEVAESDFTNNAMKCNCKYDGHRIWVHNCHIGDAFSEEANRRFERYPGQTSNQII
Protocol: The ability of compounds to inhibit one or more of the lysyl oxidases LOXL2 and/or LOXL3 was determined using a fluorometric assay. This assay measures the activity of lysyl oxidases by coupling the reaction with horseradish peroxidase-catalyzed […]. The activity assay protocol uses cadaverine as substrate that releases hydrogen peroxide upon transformation by the specific LOX family enzyme present in the sample. Hydrogen peroxide is in turn detected using a red fluorescence substrate for HRP-coupled reactions (Amplex Red Enzyme Assays, Thermo Scientific Fisher). This leads to increase in fluorescence that can be easily detected at Ex/Em=540/590 nm in a fluorescence microplate reader.
Recombinant human LOXL2 (lysyl oxidase like 2) and recombinant human LOXL3 (lysyl oxidase like 3) were purchased from R&D systems and assays were performed in 1.2 M urea, 50 mM sodium borate buffer pH 8.0, and 10 mM CaCl.
5 μl of freshly prepared reaction buffer were delivered to reaction wells. Compounds were resuspended in 100% DMSO at 10 mM and delivered into buffer using acoustic technology (Echo550; nanoliter range). A 3× solution of LOXL2 or LOXL3 in reaction buffer was prepared (“enzyme solution”) and 5 μL of enzyme solution was added into the reaction wells. Buffer only was added to column 1 for no protein control. Reactions were incubated for 30 minutes at 37° C. A 3× mixture of cadaverine, Amplex Red, and HRP (“Substrate/Detection Mix) was prepared and subsequently 5 μL of the mixture added to each reaction well. Progress of reactions was monitored for 60 minutes at 37° C. using Clariostar plate reader (ex 530-12, ems 600-40). For all activity assays, pan-LOX inhibitor CCT365623 (Tang et al, 2017) and LOXL2/LOXL3 inhibitor PAT-1251 (PharmaKea) were included as standards.
For the data analysis, the slope of the linear portion of the progress curve was calculated using Clariostar software. Typical analysis interval was between 8-30 min, but varied between experiments. The background-subtracted signals (No protein wells are considered as background) were converted to % activity relative to DMSO controls. Data was analyzed using GraphPad Prism 4 with “sigmoidal dose-response (variable slope)”; 4 parameters with Hill Slope. Constraints: Bottom=Constant equal to 0. Top=Must be less than 120.

[2] = molecular target: T2, Recombinant human LOXL2 (lysyl oxidase like 2) (Homo sapiens, UniProt Q9Y4K0); assay: LOXL2 inhibition assay, fluorometric (cadaverine / HRP / Amplex Red); assay type: biochemical; settings: recombinant human LOXL2 130 nM; 30 min preincubation at 37° C.; 2.5 mM cadaverine; read-out: Activity Range LOXL2
T2 construct: purchased R&D systems
T2 sequence (Q9Y4K0 26-774): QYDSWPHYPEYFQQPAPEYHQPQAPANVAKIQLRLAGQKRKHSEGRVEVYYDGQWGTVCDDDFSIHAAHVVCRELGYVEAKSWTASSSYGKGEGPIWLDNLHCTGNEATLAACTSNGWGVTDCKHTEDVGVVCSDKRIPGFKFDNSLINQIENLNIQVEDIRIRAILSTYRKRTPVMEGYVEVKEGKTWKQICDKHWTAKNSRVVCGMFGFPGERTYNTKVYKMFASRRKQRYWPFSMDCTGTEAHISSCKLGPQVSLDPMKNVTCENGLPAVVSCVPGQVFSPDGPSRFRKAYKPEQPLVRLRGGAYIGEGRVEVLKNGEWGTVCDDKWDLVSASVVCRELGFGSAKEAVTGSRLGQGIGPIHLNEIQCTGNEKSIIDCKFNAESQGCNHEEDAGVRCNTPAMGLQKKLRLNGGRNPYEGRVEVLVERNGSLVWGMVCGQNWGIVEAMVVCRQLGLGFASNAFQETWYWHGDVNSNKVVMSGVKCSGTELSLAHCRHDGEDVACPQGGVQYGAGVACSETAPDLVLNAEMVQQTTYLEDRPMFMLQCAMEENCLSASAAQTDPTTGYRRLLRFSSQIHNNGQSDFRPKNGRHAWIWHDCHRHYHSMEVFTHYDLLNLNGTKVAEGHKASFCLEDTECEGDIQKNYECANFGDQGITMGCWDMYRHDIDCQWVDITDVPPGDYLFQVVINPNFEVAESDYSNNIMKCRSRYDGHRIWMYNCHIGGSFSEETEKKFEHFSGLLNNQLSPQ
How it was run: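 Recombinant human LOXL2 or LOXL3 in 1.2 M urea, 50 mM sodium borate pH 8.0, 10 mM CaCl, preincubated with compound 30 min at 37 °C. Cadaverine substrate added; H2O2 detected by HRP/Amplex Red fluorescence, read kinetically for 60 min at 37 °C. Initial-rate slopes, background-subtracted and normalised to DMSO, fitted to a 4-parameter curve with bottom fixed at 0.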

Row | Structure (SMILES) | IC50 [1] [nM] | IC50 [2] [nM]
1 | NCc1ccnc(S(=O)(=O)C[C@@H]2C[C@H](c3ccccc3)CN2S(=O)(=O)N2CCOCC2)c1 (racemic) [Example 195, Cis-(2-(((1-(Morpholinosulfonyl)-4-phenylpyrrolidin-2-yl)methyl)sulfonyl)pyridin-4-yl)methanamine 2,2,2-trifluoroacetate] | ≤ 500 | ≤ 500
2 | NCc1ccnc(S(=O)(=O)C[C@@H]2C[C@H](c3ccccc3)CN2S(=O)(=O)N2CCS(=O)(=O)CC2)c1 (racemic) [Example 196, cis-4-((2-(((4-(Aminomethyl)pyridin-2-yl)sulfonyl)methyl)-4-phenylpyrrolidin-1-yl)sulfonyl)thiomorpholine 1,1-dioxide 2,2,2-trifluoroacetate] | ≤ 500 | ≤ 500
3 | NCc1ccnc(S(=O)(=O)C[C@H]2C[C@@H](c3ccccc3)CN2S(=O)(=O)N2CCOCC2)c1 (single isomer, unassigned) [Example 195A] | ≤ 500 | ≤ 500
4 | NCc1ccnc(S(=O)(=O)C[C@@H]2C[C@H](c3ccccc3)CN2S(=O)(=O)N2CCOCC2)c1 (single isomer, unassigned) [Example 195B] | ≤ 500 | ≤ 500
5 | NCc1ccnc(S(=O)(=O)C[C@@H]2C[C@H](c3ccccc3)CN2S(=O)(=O)N2CCS(=O)(=O)CC2)c1 [Example 196A, 4-(((2S,4R)-2-(((4-(aminomethyl)pyridin-2-yl)sulfonyl)methyl)-4-phenylpyrrolidin-1-yl)sulfonyl)thiomorpholine 1,1-dioxide 2,2,2-trifluoroacetate] | ≤ 500 | ≤ 500
6 | NCc1ccnc(S(=O)(=O)C[C@H]2C[C@@H](c3ccccc3)CN2S(=O)(=O)N2CCS(=O)(=O)CC2)c1 [Example 196B, 4-(((2R,4S)-2-(((4-(aminomethyl)pyridin-2-yl)sulfonyl)methyl)-4-phenylpyrrolidin-1-yl)sulfonyl)thiomorpholine 1,1-dioxide 2,2,2-trifluoroacetate] | ≤ 500 | ≤ 500
